In brackets after ≈: the same amount, converted by molar mass. Read-outs that look alike come from different tables or passages of the source.
Experiments:
[1] = test system: Staphylococcus aureus ATCC 27660; assay: Minimum Inhibitory Concentration (MIC), modified microbroth dilution; format: cell-based; details: for MIC50: Staphylococcus aureus, read-out: MIC50 S. aureus
HepG2, HB-8065 = assay: Cytotoxicity colorimetric (tetrazolium) assay; format: cell-based, human; details: HepG2 cells; one hour with compound in serum-free media
Protocol: (§1) Cytotoxicity of the compounds was evaluated in a colorimetric assay using a transformed human liver cell line (HepG2, HB-8065) and an embryonic mouse cell line (NIH/3T3 cells, CRL-1658). This assay measures the bioreduction of a novel tetrazolium compound to a soluble formazan product by viable cells. HepG2 cells were seeded in 96 well plates at 2×10^4 cells/well in MEM medium with 10% fetal bovine serum (FBS) 24 hours prior to use. NIH/3T3 cells were seeded in 96 well plates at 2×10^4 cells/well in DMEM medium with 10% bovine calf serum (BCS) 24 hours prior to use. Cell monolayers were rinsed in serum-free media and incubated for one hour with compounds in serum-free media. After incubation, the media is replaced with serum supplemented media and live cells were measured using the Cell Titer 96 Aqueous […] Assay kit (Promega, Madison, Wis.). EC50 values were determined using a four parameter logistic equation: Y=Bottom+(Top-Bottom)/(1+10̂((LogEC50−X)*HillSlope)).
(§2) Actual results from a representative cytotoxicity assay are shown below in Table 2. Data is expressed as EC50 in μg/mL.

[2] = test system: Pseudomonas aeruginosa ATCC 10145; assay: Minimum Inhibitory Concentration (MIC), modified microbroth dilution; format: cell-based; details: for MIC50: Pseudomonas aeruginosa, read-out: MIC50 P. Aeruginosa
NIH/3T3 cells, CRL-1658 = assay: Cytotoxicity colorimetric (tetrazolium) assay; format: cell-based, mouse; details: NIH/3T3 cells; one hour with compound in serum-free media
Protocol: as §1, §2

[3] = test system: Klebsiella pneumoniae ATCC 13883; assay: Minimum Inhibitory Concentration (MIC), modified microbroth dilution; format: cell-based; details: for MIC50: Klebsiella pneumoniae, read-out: MIC50 K. Pnuemnoiae
[4] = test system: Enterococcus faecalis ATCC 29212; assay: as above; format: cell-based; details: for MIC50: Enterococcus faecalis, read-out: MIC50 E. faecalis
E. Coli ATCC 25922 = assay: as above; format: cell-based; details: for MIC50: Escherichia coli, read-out: MIC50 E. coli
[5] = Cytotoxicity colorimetric (tetrazolium) assay; format: cell-based, human; details: human, HepG2 cells (HB-8065), HepG2 cells; one hour with compound in serum-free media
Protocol: as §1, §2

[6] = Cytotoxicity colorimetric (tetrazolium) assay; format: cell-based, mouse; details: mouse, NIH/3T3 cells (CRL-1658), NIH/3T3 cells; one hour with compound in serum-free media
Protocol: as §1, §2

[7] = S. aureus (27660), overnight incubation (18 hours)
[8] = P. aeruginosa (10145), overnight incubation (18 hours)
[9] = K. pneumoniae (13883), overnight incubation (18 hours)
[10] = E. faecalis (29212), overnight incubation (18 hours)
[11] = E. coli (25922), overnight incubation (18 hours)
[12] = ATCC27660, S. aureus (27660), overnight incubation (18 hours)
[13] = ATCC10145, P. aeruginosa (10145), overnight incubation (18 hours)
[14] = ATCC13883, K. pneumoniae (13883), overnight incubation (18 hours)
[15] = ATCC29212, E. faecalis (29212), overnight incubation (18 hours)
[16] = ATCC25922, E. coli (25922), overnight incubation (18 hours)

Row | SMILES | MIC50 S. aureus [1, 7] [µg/mL] | EC50 HepG2 (cytotoxicity) (HepG2, HB-8065) [µg/mL] | MIC50 P. Aeruginosa [2, 8] [µg/mL] | EC50 NIH 3T3 (cytotoxicity) (NIH/3T3 cells, CRL-1658) [µg/mL] | MIC50 K. Pnuemnoiae [3, 9] [µg/mL] | MIC50 E. faecalis [4, 10] [µg/mL] | MIC50 E. coli (E. Coli ATCC 25922; [11]) [µg/mL] | EC50 at 1 h [5] [µg/mL] | EC50 at 1 h [6] [µg/mL] | further results
1 | Nc1cccc(-c2ccc3[nH]c4ccc(-c5cccc(N)c5)cc4c3c2)c1 [Compound 177] | 1.56 (≈ 4.46 µM) | >1000 | 12.5 (≈ 35.8 µM) | 487 (≈ 1390 µM) | >50 | >50 | 1.56 (≈ 4.46 µM) | – | – | –
2 | NCCCNC(=O)c1cc(C(=O)NCCCN)cc(-c2ccc3sc4ccc(-c5cc(C(=O)NCCCN)cc(C(=O)NCCCN)c5)cc4c3c2)c1 [Compound 171] | 6.25 (≈ 8.48 µM) | 236 (≈ 320 µM) | >100 | 46.5 (≈ 63.1 µM) | >100 | >100 | >100 | – | – | –
3 | NCCN(CCN)Cc1cccc(-c2ccc3[nH]c4ccc(-c5cccc(CN(CCN)CCN)c5)cc4c3c2)c1 [Compound 179] | 1.56 (≈ 2.84 µM) | 615 (≈ 1120 µM) | 25 (≈ 45.5 µM) | 179 (≈ 326 µM) | >50 | >50 | 1.56 (≈ 2.84 µM) | – | – | –
4 | O=C(Nc1ccc(-c2ccnc(N3CCNCC3)c2)cc1F)Nc1ccc(-c2ccnc(N3CCNCC3)c2)cc1F [Compound 142] | 100 (≈ 175 µM) | 105 (≈ 184 µM) | 25 (≈ 43.8 µM) | – | 25 (≈ 43.8 µM) | – | 12.5 (≈ 21.9 µM) | – | – | –
5 | NCC#Cc1cc(C#CCN)cc(-c2cc(-c3cc(C#CCN)cc(C#CCN)c3)cc(C(F)(F)F)c2)c1 [Compound 125] | 12.5 (≈ 24.5 µM) | – | 12.5 (≈ 24.5 µM) | 26.1 (≈ 51.1 µM) | 25 (≈ 49 µM) | 12.5 (≈ 24.5 µM) | 12.5 (≈ 24.5 µM) | – | – | –
6 | N=C(N)NCCc1cc(CCNC(=N)N)cc(-c2cccc(-c3cc(CCNC(=N)N)cc(CCNC(=N)N)c3)c2)c1 [Compound 116] | – | – | – | – | – | – | – | 974 (≈ 1710 µM) | 676 (≈ 1180 µM) | MIC50 [1, 12]: 6.25 µg/mL (≈ 11 µM); MIC50 [2, 13]: 25 µg/mL (≈ 43.8 µM); MIC50 [3, 14]: 25 µg/mL (≈ 43.8 µM); MIC50 [4, 15]: 25 µg/mL (≈ 43.8 µM); MIC50 (E. Coli ATCC 25922; [16]): 6.25 µg/mL (≈ 11 µM)
7 | N=C(N)NCCCOc1cc(OCCCNC(=N)N)cc(-c2ccc3sc4ccc(-c5cc(OCCCNC(=N)N)cc(OCCCNC(=N)N)c5)cc4c3c2)c1 [Compound 172] | – | – | – | – | – | – | – | 35.7 (≈ 44.8 µM) | 41.4 (≈ 51.9 µM) | MIC50 [1, 12]: 0.049 µg/mL (≈ 0.0615 µM); MIC50 [2, 13]: 6.25 µg/mL (≈ 7.84 µM); MIC50 [3, 14]: 0.78 µg/mL (≈ 0.979 µM); MIC50 [4, 15]: 0.78 µg/mL (≈ 0.979 µM); MIC50 (E. Coli ATCC 25922; [16]): 0.78 µg/mL (≈ 0.979 µM)
8 | NCCC#Cc1cc(-c2cc(OCCCN)cc(-c3cc(C#CCCN)cc(C(F)(F)F)c3)c2)cc(C(F)(F)F)c1 [Compound 122] | 1.56 (≈ 2.72 µM) | – | 12.5 (≈ 21.8 µM) | 14.5 (≈ 25.3 µM) | 3.13 (≈ 5.46 µM) | 1.56 (≈ 2.72 µM) | 3.13 (≈ 5.46 µM) | – | – | –
9 | NCCCN1c2ccccc2Sc2ccccc21 [Compound 100] | – | – | – | – | – | – | – | 18 (≈ 70.2 µM) | 13 (≈ 50.7 µM) | MIC50 ([1]; ATCC27660, 18 h): 100 µg/mL (≈ 390 µM); MIC50 ([2]; ATCC10145, 18 h): 100 µg/mL (≈ 390 µM); MIC50 ([3]; ATCC13883, 18 h): 100 µg/mL (≈ 390 µM); MIC50 ([4]; ATCC29212, 18 h): 100 µg/mL (≈ 390 µM); MIC50 (E. Coli ATCC 25922; ATCC25922, 18 h): 100 µg/mL (≈ 390 µM)

Source: patent US20140308317A1, “Polymeric Compounds And Methods Of Making And Using The Same” (CELLCEUTIX CORPORATION, priority 2012, published 2014)
